Patent publication US10206388B2, “Formulation component” (SYNGENTA LIMITED, priority 2011, dated 2019)

Legend:
Type in all cases: in vivo
[1] = tested on: Tetranychus urticae; assay: Two spotted spider mite mortality on French bean, abamectin with aromatic ester adjuvants; details: for % mortality of Tetranychus urticae: adjuvant 0.1% v/v where present, French bean, 10 days, larva and adults averaged
Description: The efficacy of the benzoic acid esters Finsolv® SB (isostearyl benzoate) and Finsolv® TN (C12-C15 alkyl benzoate) and the aromatic ester ethoxylate Dermol®25-3B (C12-C15 alkyl ethoxy (3) benzoate) as adjuvants in compositions containing abamectin was tested and compared to the efficacy of abamectin compositions which lack this type of adjuvant. The adjuvants were present at 0.1% v/v in the abamectin compositions. The surfactants polyoxyethylene sorbitan monooleate and an ethoxylated castor oil were also present in all the abamectin compositions tested.
Two week old French bean (Phaseolus vulgaris) plants were infested with a mixed population of two spotted spider mite Tetranychus urticae. One day after infestation the plants were treated with the test compositions, with a track sprayer from the top with a rate of 200 liters per hectare. Plants were incubated in the greenhouse for 10 days and the evaluation was done on mortality against Larva and Adults, just on the lower side (untreated) of the leaves. Each experiment was replicated twice and the results were averaged. The mortality against Larva and Adults was then averaged.

[2] = tested on: Chenopodium album (CHEAL); assay: Glasshouse weed test, nicosulfuron with adjuvants; details: mean over two rates
Description: (§1) The aromatic ester Finsolv® TN (C12-C15 alkyl benzoate) was tested in a glasshouse against four weed species using the herbicide nicosulfuron. An agrochemical composition was prepared containing 0.2% v/v of the adjuvant in a track sprayer, and was applied at a volume of 200 liters per hectare. Nicosulfuron was applied at either 30 or 60 grams of pesticide per hectare on each of the weed species. The weed species and their growth stage at spraying were Abutilon theophrasti (ABUTH; growth stage 13), Chenopodium album (CHEAL; growth stage 14), Digitaria sanguinalis (DIGSA; growth stage 13), and Setaria viridis (SETVI; growth stage 13).
(§2) Each spray test replicated three times. The efficacy of the herbicide was assessed visually and expressed as a percentage of the leaf area killed. Samples were assessed at time periods of 7, 14 and 20 days following application. The results shown in Table 6 below are mean averages over the two rates of nicosulfuron, three replicates and the three assessment timings, and are compared to the efficacy of nicosulfuron in the absence of an adjuvant, and nicosulfuron in the presence of the commercially available tank-mix adjuvant, Atplus411F®.
(§3) A second experiment was conducted to assess the efficacy of Finsolv® TN as an adjuvant in compositions of nicosulfuron. This was carried out as outlined above, with the following change: samples were assessed at 14 and 20 days post application.
(§4) The results shown in Table 7 below are mean averages over the two rates of nicosulfuron, three replicates and the two assessment timings, and are compared to the efficacy of nicosulfuron in the absence of an adjuvant, and nicosulfuron in the presence of the commercially available tank-mix adjuvant, Atplus411F®.
(§5) The aromatic esters Benzoate 1 (see Example 9), Benzoflex 354 (2,2,4-trimethyl-1,3-pentanediol dibenzoate) and Finsolv® SB (stearyl benzoate) were tested in a glasshouse against four weed species using the herbicide nicosulfuron. Nicosulfuron was applied at either 30 or 60 grams of pesticide per hectare on each of the weed species. The weed species and their growth stage at spraying were Abutilon theophrasti (ABUTH; growth stage 13), Chenopodium album (CHEAL; growth stage 14), Digitaria sanguinalis (DIGSA; growth stage 13), and Setaria viridis (SETVI; growth stage 13).
as §2, with “of” for “of 7,”, “Table 14” for “Table 6”, “the two” for “the three”

[3] = tested on: Abutilon theophrasti (ABUTH); assay: Glasshouse weed test, nicosulfuron with adjuvants; details: mean over two rates
Description: as §1, §2, §3, §4, §5
as §2, with “of” for “of 7,”, “Table 14” for “Table 6”, “the two” for “the three”

[4] = tested on: Setaria viridis (SETVI); assay: Glasshouse weed test, nicosulfuron with adjuvants; details: mean over two rates
Description: as §1, §2, §3, §4, §5
as §2, with “of” for “of 7,”, “Table 14” for “Table 6”, “the two” for “the three”

[5] = tested on: Digitaria sanguinalis (DIGSA); assay: Glasshouse weed test, nicosulfuron with adjuvants; details: mean over two rates
Description: as §1, §2, §3, §4, §5
as §2, with “of” for “of 7,”, “Table 14” for “Table 6”, “the two” for “the three”

[6] = tested on: four weed species (ABUTH, CHEAL, DIGSA, SETVI); assay: Glasshouse weed test, nicosulfuron with adjuvants, mean across species; details: mean over two rates
Description: as §1, §2, §3, §4, §5
as §2, with “of” for “of 7,”, “Table 14” for “Table 6”, “the two” for “the three”
An agrochemical composition was prepared containing 0.2% v/v of the adjuvant in a track sprayer and was applied at a volume of 200 liters per hectare. The adjuvant oils were emulsified using a small amount of the surfactant Pluronic® PE 10500, which was present in the composition at a concentration of 0.02% v/v. Nicosulfuron was applied at either 30 or 60 grams of pesticide per hectare on each of the weed species. The weed species and their growth stage at spraying were Abutilon theophrasti (ABUTH; growth stage 13), Chenopodium album (CHEAL; growth stage 14-15), Digitaria sanguinalis (DIGSA; growth stage 14), and Setaria viridis (SETVI; growth stage 13-14).
Each spray test replicated three times. The efficacy of the herbicide was assessed visually and expressed as a percentage of the leaf area killed. Samples were assessed at time periods of 14 and 21 days following application. […]

[7] = Table 6, Example 5: nicosulfuron 30 or 60 g/ha, adjuvant 0.2% v/v, three replicates, 7, 14 and 20 days
[8] = Table 7, Example 5 second experiment: nicosulfuron 30 or 60 g/ha, adjuvant 0.2% v/v, three replicates, 14 and 20 days
[9] = Table 14, Example 10: nicosulfuron 30 or 60 g/ha, three replicates, 14 and 20 days

CC(C)CCCCCCCCCCCCCCCOC(=O)c1ccccc1 [Finsolv® SB, Isostearyl benzoate]
Mortality of Tetranychus urticae ([1]; aromatic ester composition 0.1% v/v without abamectin present): no mortality

COc1cc(OC)nc(NC(=O)NS(=O)(=O)c2ncccc2C(=O)N(C)C)n1 [Nicosulfuron, nicosulfuron]
Mean percentage kill CHEAL [2, 7]: 26.7 B % | Mean percentage kill CHEAL [2, 8]: 25.8 B % | Mean percentage kill CHEAL [2, 9]: 44.6 B % | Mean percentage kill ABUTH [3, 7]: 19.4 B % | Mean percentage kill ABUTH [3, 8]: 29.2 B % | Mean percentage kill ABUTH [3, 9]: 56.7 C % | Mean percentage kill SETVI [4, 7]: 33.3 C % | Mean percentage kill SETVI [4, 8]: 61.3 C % | Mean percentage kill SETVI [4, 9]: 81.0 B % | Mean percentage kill DIGSA [5, 7]: 1.1 B % | Mean percentage kill DIGSA [5, 8]: 0.0 B % | Mean percentage kill DIGSA [5, 9]: 56.3 B % | Mean percentage kill, Mean across species [6, 7]: 20.1 B % | Mean percentage kill, Mean across species [6, 8]: 29.1 B % | Mean percentage kill, Mean across species [6, 9]: 59.6 B % | Mean percentage kill, Mean across species ([6]; Table 19, Example 15: nicosulfuron 30 or 60 g/ha, adjuvant 0.2% v/v emulsified with Pluronic PE 10500 0.02% v/v, three replicates, 14 and 21 days): 29.8B % | Mean percentage kill, Mean across species ([6]; Table 23, Example 19: absence of an adjuvant, nicosulfuron 30 or 60 g/ha, three replicates, 14 and 21 days): 40.1% | Mean percentage kill, Mean across species ([6]; Table 33, Example 33: nicosulfuron 30 or 60 g/ha, three replicates, 14 and 21 days): 40.1B %

abamectin
% mortality of Tetranychus urticae ([1]; abamectin 0.2 ppm): 0% | % mortality of Tetranychus urticae ([1]; abamectin 0.4 ppm): 0% | % mortality of Tetranychus urticae ([1]; abamectin 0.8 ppm): 27% | % mortality of Tetranychus urticae ([1]; abamectin 1.5 ppm): 70% | % mortality of Tetranychus urticae ([1]; abamectin 3 ppm, lower untreated leaf side): 95%
